One compound from ChEMBL document CHEMBL1671668, “Is the recommended dose of efavirenz optimal in young West African human immunodeficiency virus-infected children?” (Antimicrob Agents Chemother, 2009) can be followed below.

Data set [1] relates to Homo sapiens. The data set can be described thus: AUC (0 to t) in HIV-1 infected children at 14.4 mg/kg, po administered once daily by HPLC. Type of data set: ADME, organism-based, Plasma. Further details: dose 14.4 mg/kg, route oral. Conditions: in vivo.
The test system of data set [2] is Homo sapiens. The data set can be described thus: AUC (0 to t) in HIV-1 infected children at 12 mg/kg, po administered once daily by HPLC. Type of data set: ADME, organism-based, Plasma. On the set-up: dose 12 mg/kg, route oral. Conditions: in vivo.
A short description of data set [3]: Apparent oral clearance in HIV-1 infected children at 14.4 mg/kg, po administered once daily by HPLC. Type of data set: ADME, organism-based. Further details: dose 14.4 mg/kg, route oral. Conditions: human, in vivo.
The subject of data set [4] is Homo sapiens. The data set can be described thus: AUC (0 to t) in HIV-1 infected children at 10 to 15 mg/kg, po administered once daily by HPLC. Type of data set: ADME, organism-based, Plasma. Further details: dose 10-15 mg/kg, route oral. Conditions: in vivo.
A short description of data set [5]: Cmax in HIV-1 infected children at 10 to 15 mg/kg, po administered once daily by HPLC. Type of data set: ADME, organism-based. Further details: dose 10-15 mg/kg, route oral. Conditions: human, in vivo.
The nature of data set [6]: Apparent oral clearance in HIV-1 infected children at 13.3 mg/kg, po administered once daily by HPLC. Type of data set: ADME, organism-based. Further details: dose 13.3 mg/kg, route oral. Conditions: human, in vivo.
Data set [7] can be described thus: Cmax in HIV-1 infected children at 14.4 mg/kg, po administered once daily by HPLC. Type of data set: ADME, organism-based. Further details: dose 14.4 mg/kg, route oral. Conditions: human, in vivo.
A short description of data set [8]: Apparent oral clearance in HIV-1 infected children at 12 mg/kg, po administered once daily by HPLC. On the set-up: dose 12 mg/kg, route oral. Conditions: human, in vivo. Type of data set: ADME, organism-based.
Data set [9] is described as follows: Cmax in HIV-1 infected children at 12 mg/kg, po administered once daily by HPLC. Type of data set: ADME, organism-based. On the set-up: dose 12 mg/kg, route oral. Conditions: human, in vivo.
Data set [10] relates to Human immunodeficiency virus 1. The data set can be described thus: Antiviral activity against HIV1 infected in children assessed as decrease in viral burden at 14.4 mg/kg once daily measured after 3 months. Type of data set: functional.

By AUC is commonly meant concentration integrated over time. The CL/F is clearance divided by bioavailability, as obtained after extravascular dosing. The term Cmax denotes the peak of the concentration-time curve. As for `O=C1Nc2ccc(Cl)cc2[C@@](C#CC2CC2)(C(F)(F)F)O1` [EFAVIRENZ], the area under the curve (AUC) in the data set on Homo sapiens [1] turned out to be 65.2 mg·h/L; with Homo sapiens [2], 60 mg·h/L; in the data set with Homo sapiens [4], 63.6 mg·h/L. Further, the CL/F in [3] was 3.5 mL/min/kg; in [6], 5 mL/min/kg; in data set [8] it was 3.17 mL/min/kg. The highest concentration (Cmax) in [5] is 5520 ng/mL; in [7] it was 3710 ng/mL; in data set [9], 4090 ng/mL. In [10], the “fold change (FC)” value is reported as 2.5.
